In ChEMBL document CHEMBL1142262, “New QSAR combined strategy for the design of A1 adenosine receptor agonists” (Bioorg Med Chem, 2008):
pKi: −log10 of the molar value.

Target: T1, Adenosine receptor A1 (Rattus norvegicus, UniProt P25099)
T1 sequence (P25099 whole entry): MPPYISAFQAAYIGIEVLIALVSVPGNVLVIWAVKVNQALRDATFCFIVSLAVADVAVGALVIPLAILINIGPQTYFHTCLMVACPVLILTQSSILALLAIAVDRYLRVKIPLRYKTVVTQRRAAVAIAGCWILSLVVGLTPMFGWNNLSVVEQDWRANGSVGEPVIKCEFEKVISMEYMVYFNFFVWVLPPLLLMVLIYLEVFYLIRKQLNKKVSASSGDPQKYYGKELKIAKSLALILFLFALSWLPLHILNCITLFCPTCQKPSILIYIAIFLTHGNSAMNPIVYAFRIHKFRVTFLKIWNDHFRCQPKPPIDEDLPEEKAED
Assay: Displacement of [3H]R-N6-phenylisopropyladenosine from adenosine A1 receptor in rat cerebral cortical membrane
Type: cell membranes
Conditions: read-out: -Log Ki (converted)

Ki	SMILES
333 µM	OCC1CC=CC1n1cnc2c(NC3CCCC3)ncnc21 (racemic)

Same assay, conditions: read-out: Ki

pKi	SMILES
5.52	OCC1CC=CC1n1cnc2c(NC3CCCC3)ncnc21 (racemic)
4.59	OCC1CC=CC1n1cnc2c(NCc3ccccc3I)ncnc21 (racemic)
4.49	OCC1CC=CC1n1cnc2c(NC3CC3)ncnc21 (racemic)

Target: T2, Adenosine receptor A1 (Rattus norvegicus) (UniProt P25099)
T2 sequence (whole entry): T1 sequence (P25099 whole entry)
Assay: Displacement of [3H]R-N6-phenylisopropyladenosine from adenosine A1 receptor in rat cerebral cortical membrane at 100 uM
Type: cell membranes
Conditions: not given

inhibition	SMILES
22%	CNC(=O)C1CC=CC1n1cnc2c(N)ncnc21 (racemic)
50%	CNC(=O)C1CC=CC1n1cnc2c(NC3CC3)ncnc21 (racemic)
< 10%	CNC(=O)C1CC=CC1n1cnc2c(NC3CCCC3)ncnc21 (racemic)
< 10%	CNC(=O)C1CC=CC1n1cnc2c(NCc3ccccc3)ncnc21 (racemic)
25%	CNC(=O)C1CCCC1n1cnc2c(N)ncnc21 (racemic)
< 10%	CNC(=O)C1CCCC1n1cnc2c(NC3CC3)ncnc21 (racemic)
31%	CNC(=O)C1CCCC1n1cnc2c(NC3CCCC3)ncnc21 (racemic)
26%	CNC(=O)C1CCCC1n1cnc2c(NCc3ccccc3)ncnc21 (racemic)
< 10%	CNC(=O)C1CCCC1n1cnc2c(NCc3ccccc3I)ncnc21 (racemic)
29%	NNc1ncnc2c1ncn2C1C=CCC1CO (racemic)
